# PMC3433414, “Oral Administration of the Pimelic Diphenylamide HDAC Inhibitor HDACi 4b Is Unsuitable for Chronic Inhibition of HDAC Activity in the CNS In Vivo” (PLoS ONE, 2012)
# Like-named read-outs stand apart in the source and are kept apart here.
# Test: Pharmacokinetics after a single SC or PO dose
# Type: in vivo, mouse
# Conditions: for Tmax: read-out: Observed Tmax
# Protocol: The pharmacokinetic parameters of 4b following dosing with either 5 mg/kg subcutaneous (sc) injection using the soluble formulation, or 4b per oral (po) by gavage (50 mg/kg in suspension) in mice plasma and whole brain homogenate are shown in Fig. 4 and Table 1. Triplicate dose formulation samples were retained and analyzed to ensure an accurate concentration of 4b was injected. The sc dose was calculated to be on average 84.3% of the 5 mg/kg target dose. Therefore, for PK analysis purposes, the dose level for this group was adjusted to 4.22 mg eq./kg based on the reported average dose formulation concentration and calculation parameters were adjusted accordingly. The po gavage dose was accurate at 50 mg/kg (within 104% of the nominal concentration of 10.0 mg/mL), and triplicate sampling from the vial (1 per strata; top, middle, and bottom) confirmed that the suspension dosed was homogeneous.
# All dose formulation procedures were conducted under yellow lighting conditions to protect 4b from light. For the subcutaneous dose group, 2.504 mg 4b was weighed, and transferred into a formulation container. NMP (0.05 mL) was added and the contents were vortexed until 4b was completely dissolved. With continuous vortexing after each addition, PEG400 (0.45 mL), Solutol HS-15 (0.25 mL) and finally 1% Lutrol F68 in RODI water (1.75 mL) followed by sonication for 6 min. The formulation was filtered into a sterile serum vial using a 0.22 µm Millex GV PVDF filter. The resultant formulation was a clear colorless solution.
# For the oral dose group, 4b was weighed (21.138 mg) and transferred to a formulation container. The prepared vehicle (0.5% CMC, 2.11 mL) was transferred into the formulation container, and the contents were stirred and sonicated for a total of 20 min. The resultant formulation was a white homogenous suspension.
# Whole blood samples (225 µL each ∼90 µL plasma) were collected at each time point per animal into tubes containing K2EDTA. Samples were held on wet ice prior to centrifugation. Mice were bled twice; the first bleed was made via the submandibular facial vein, the second bleed was a terminal collection via cardiac puncture. […] The entire volume of the plasma sample was then transferred to individual tubes contained in a 96-well Matrix plate kept chilled in icy water through the entire process until storage at −70°C ±10°C. Collected plasma samples were stored at −70°C ±10°C until transferred to the analytical laboratory frozen on dry ice for bioanalysis.
# The brain of each animal was collected following CO2 euthanasia and terminal bleeding. Each brain was rinsed with saline once removed from the body (to flush away any blood that may have been present), snap frozen in liquid nitrogen, and stored individually in 15 mL conical tubes at −70°C ±10°C.
# Prior to extraction, acetonitrile: water (3∶1, v/v) was added to each tissue sample at a tissue: solvent ratio of 1∶3 (w/v) or 1∶2.536 (w/w), and homogenized using an OMNI tissue homogenizer. The actual volume of extraction buffer or organic solvent added to each tissue was recorded. Samples were kept chilled in icy water through the entire process until processed for 4b extraction. Immediately prior to extraction, tissue homogenates were thoroughly vortexed and aliquoted into 96-well plate(s). The entire process, from tissue homogenization to placing the samples in the tubes for 4b extraction, was conducted within 8 h.
# primary stock solution was prepared at 1 mg eq./mL in DMSO. The matrix calibration standards were prepared at 1, 2, 5, 10, 50, 250, 1000, 2500, 5000 and 10000 ng eq./mL in mouse plasma for plasma, and 0.25, 0.5, 1.25, 2.5, 12.5, 62.5, 250, 625, 1250, 2500 ng eq./mL in tissue homogenate for tissue analysis. Plasma samples were quantified against an external calibration curve generated in control plasma from male C57BL/6NCRL mice. Tissue samples were quantified against an external calibration standard curve generated in control brain tissue from male C57BL/6NCRL mice. […]
# [1] = C57BL/6NCRL, mouse, brain/plasma, po 50 mg eq./kg, mean (standard deviation), N = 3, read-out: B:P
# [2] = C57BL/6NCRL, mouse, brain/plasma, sc 4.22 mg eq./kg, mean (standard deviation), N = 3, read-out: B:P
structure (smiles),measurement,setting,value
Nc1ccccc1NC(=O)CCCCCC(=O)Nc1ccccc1 [Compound 4b],"brain concentration in the acute sc pharmacodynamic trial, fold higher than by oral dosing",150 mg/kg,~65 fold
same,AUC(0-inf),"C57BL/6NCRL, mouse, 4.22 mg/kg, mice, SC 4.22 mg eq./kg, plasma",1.63 µM·h
same,half-life,"C57BL/6NCRL, mouse, 4.22 mg/kg, mice, SC 4.22 mg eq./kg, plasma, read-out: T1/2 (converted)",39.6 min
same,AUC(0-inf),"C57BL/6NCRL, mouse, 50 mg/kg, mice, PO 50 mg eq./kg, brain",0.129 µM·h
same,half-life,"C57BL/6NCRL, mouse, 50 mg/kg, mice, PO 50 mg eq./kg, brain, read-out: T1/2 (converted)",182 min
same,AUC(0-inf),"C57BL/6NCRL, mouse, 50 mg/kg, mice, PO 50 mg eq./kg, plasma",1.08 µM·h
same,half-life,"C57BL/6NCRL, mouse, 50 mg/kg, mice, PO 50 mg eq./kg, plasma, read-out: T1/2 (converted)",166 min
same,Cmax,"C57BL/6NCRL, mouse, brain, po, 50 mg/kg, mice, PO 50 mg eq./kg, brain, read-out: Observed Cmax",24 nM
same,Tmax,"C57BL/6NCRL, mouse, brain, po, 50 mg/kg, mice, PO 50 mg eq./kg, brain",60 min
same,Cmax,"C57BL/6NCRL, mouse, brain, sc, 4.22 mg/kg, mice, SC 4.22 mg eq./kg, brain, read-out: Observed Cmax",134 nM
same,Tmax,"C57BL/6NCRL, mouse, brain, sc, 4.22 mg/kg, mice, SC 4.22 mg eq./kg, brain",30 min
same,Kp at 0.5 hr,[1],0.05
same,Kp at 1 hr,[1],0.08
same,Kp at 8 hr,"C57BL/6NCRL, mouse, brain/plasma, po 50 mg eq./kg, 8 hr, mean (standard deviation), N = 3, read-out: B:P",0.2
same,Kp at 0.5 hr,[2],0.09
same,Kp at 1 hr,[2],0.06
same,AUC,"C57BL/6NCRL, mouse, plasma, 50 mg/kg, mice, po 50 mg eq/kg",1.08 µM·h
same,Cmax,"C57BL/6NCRL, mouse, plasma, po, 50 mg/kg, mice, PO 50 mg eq./kg, plasma, read-out: Observed Cmax",1130 nM
same,Tmax,"C57BL/6NCRL, mouse, plasma, po, 50 mg/kg, mice, PO 50 mg eq./kg, plasma",≤ 30 min
same,Cmax,"C57BL/6NCRL, mouse, plasma, po, 50 mg/kg, mice, po 50 mg eq/kg, read-out: plasma Cmax",1300 nM
same,half-life,"C57BL/6NCRL, mouse, plasma, sc, 4.22 mg eq./kg, after subcutaneous dosing, read-out: plasma half-life",~40 min
same,Cmax,"C57BL/6NCRL, mouse, plasma, sc, 4.22 mg/kg, mice, SC 4.22 mg eq./kg, plasma, read-out: Observed Cmax",1340 nM
same,Tmax,"C57BL/6NCRL, mouse, plasma, sc, 4.22 mg/kg, mice, SC 4.22 mg eq./kg, plasma",≤ 30 min
same,Cmax,"C57BL/6NCRL, mouse, plasma, sc, 4.22 mg/kg, mice, sc 4.22 mg/kg, read-out: plasma Cmax",1340 nM
same,AUC,"C57BL/6NCRL, mouse, plasma, mice, sc 4.22 mg/kg",1.63 µM·h
same,estimated brain Cmax,"extrapolated to 150 mg/kg s.c., assuming linear kinetics",4000 to 5000 nM
same,estimated brain Cmax,extrapolated to oral bolus of 150 mg/kg,~72 nM
same,Cmax,"mice, PO 50 mg eq./kg, brain, read-out: Observed Cmax",24.3 nM
same,brain concentration (below LLQ),"po 50 mg/kg, after 8 h",< 2.3 nM eq.
same,plasma concentration (below LLQ),"po 50 mg/kg, after 8 h",< 3.07 nM eq.
same,plasma concentration (below LLQ),"sc 4.22 mg/kg eq, after 4 h",< 3.07 nM eq.
same,brain concentration (below LLQ),"sc 4.22 mg/kg eq, after 8 h",< 2.3 nM eq.
